Data published in US20250313546A1, “NUCLEIC ACID BINDERS” (UNIVERSITY OF STRATHCLYDE, priority 2022, published 2025).
Values after ≈ are worked out from the molar mass of the structure shown.

Columns and labels:
[1] = tested on: Staphylococcus aureus (ATCC 43300); experiment: Antibacterial MIC, broth microdilution (CLSI); format: cell-based; details: for MIC80: Staphylococcus aureus, ATCC43300, read-out: MIC80 S. aureus
[2] = tested on: Genomic double stranded DNA (salmon); experiment: Fluorescence intercalator displacement (FID) assay, SYBR-safe probe; details: 20 μM compound, 30° C., lower % = stronger binding
Description: (§1) The ability of compounds of the invention to bind to DNA and RNA was assessed using a fluorescence intercalator displacement assay. Genomic double stranded DNA (salmon) or PolyAU double stranded RNA is treated with probe molecule (Sybr-Safe) that increases its fluorescence upon binding to nucleic acids.
(§2) polyAU RNA (Polyadenylic acid—Polyuridylic acid sodium salt, double-stranded homopolymer, P1537, Merck) or genomic DNA (Deoxyribonucleic acid sodium salt from salmon testes, D1626, Merck) was dissolved in 1 mM pH 7.4 phosphate buffer (containing 0.27 mM potassium chloride, 13.7 mM sodium chloride) to a concentration of 1 mg/mL in, SybrSafe (SYBR® Safe DNA Gel Stain, ×10,000 in DMSO, S33102 Invitrogen) was used as supplied by the manufacturer in DMSO, and compounds of the invention were prepared as 10 mM stocks in DMSO. These stock solutions were diluted appropriately with each other and 1 mM phosphate buffer to give test solutions comprised of 20 μM compound of the invention, 12500-fold dilution of SybrSafe and 3.76 ng/mL RNA/DNA. Control solutions of RNA/DNA and SybrSafe, RNA/DNA, and SybrSafe at these concentrations were also prepared. Test and control solutions were heated to 30° C. and the fluorescence of each solution was measured using the SYBER filter setting of a StepOnePlus using melt analysis mode (StepOne Software v2.3). The reduction of fluorescence due to the binding of the compound of the invention to the RNA/DNA was calculated as a normalised percentage based on the fluorescence measured due to the control with SybrSafe and RNA/DNA as maximum and the control with only SybrSafe as minimum.
(§3) A reduction in normalised % is indicative of probe displacement and thus strong nucleic acid binding.

[3] = tested on: PolyAU double stranded RNA; experiment: as above; details: 20 μM compound, 30° C., lower % = stronger binding
Description: as §1, §2, §3

[4] = tested on: Escherichia coli (ATCC 25922); experiment: Antibacterial MIC, broth microdilution (CLSI); format: cell-based; details: for MIC80: Escherichia coli, ATCC25922, read-out: MIC80 E. coli
[5] = tested on: Enterococcus faecalis (ATCC 51299); experiment: Antibacterial MIC, broth microdilution (CLSI); format: cell-based; details: for MIC80: Enterococcus faecalis, ATCC51299, read-out: MIC80 E. faecalis
[6] = tested on: T. vaginalis; experiment: Trichomonas resorufin assay; format: cell-based; details: Trichomonas vaginalis, read-out: IC50 T. vaginalis

Row | SMILES | MIC80 [1] | % Normalised Fluorescence with gDNA [2] | % Normalised Fluorescence with polyAU RNA [3] | MIC80 [4] | MIC80 [5] | IC50 [6] | S. aureus Selectivity Indices, Group ([1]; SI, IC50 (μM)/MIC80 (μM), HEK293 cytotoxicity, Alkyl Amidines and NH Pyrroles) | MIC80 S. aureus ([1]; MIC at 80% inhibition, ATCC 43300) | MIC80 E. coli ([4]; MIC at 80% inhibition, ATCC 25922) | MIC80 E. faecalis ([5]; MIC at 80% inhibition, ATCC 51299)
1 | CC/N=C(/CCNC(=O)c1cc(NC(=O)c2cc(NC(=O)c3ccc(/C=C/c4ccc5nonc5c4)cc3)cn2C)cn1C)NCC [Ia25, 4-(4-((E)-2-(benzo[c][1,2,5]oxadiazol-5-yl)vinyl)benzamido)-N-(5-(((Z)-3-(ethylamino)-3-(ethylimino)propyl)carbamoyl)-1-methyl-1H-pyrrol-3-yl)-1-methyl-1H-pyrrole-2-carboxamide] | 25 to 100 µM (≈ 15.9 to 63.6 µg/mL) | 28% | 12% | > 100 µM | > 100 µM | – | – | – | – | –
2 | Cn1cc(NC(=O)c2cc(NC(=O)c3ccc(/C=C/c4cnc5ccccc5c4)cc3)cn2C)cc1C(=O)NCCCCN1CCCC1 [IVa12, (E)-1-methyl-4-(1-methyl-4-(4-(2-(quinolin-3-yl)vinyl)benzamido)-1H-pyrrole-2-carboxamido)-N-(4-(pyrrolidin-1-yl)butyl)-1H-pyrrole-2-carboxamide] | 5 to 25 µM (≈ 3.22 to 16.1 µg/mL) | 50% | 71% | > 100 µM | < 5 µM | – | – | – | – | –
3 | CNC(=O)c1cc(NC(=O)c2cc(NC(=O)c3ccc(/C=C/c4ccc(N(C)C)cc4)nc3)cn2C)cn1C [IVa13, (E)-6-(4-(dimethylamino)styryl)-N-(1-methyl-5-((1-methyl-5-(methylcarbamoyl)-1H-pyrrol-3-yl)carbamoyl)-1H-pyrrol-3-yl)nicotinamide] | < 5 µM | 80% | 83% | > 100 µM | < 5 µM | – | – | – | – | –
4 | CC(C)NC(=O)c1cc(NC(=O)c2cc(NC(=O)c3ccc(/C=C/c4cnc5ccccc5c4)cc3)cn2C)cn1C [IVa4, (E)-N-isopropyl-1-methyl-4-(1-methyl-4-(4-(2-(quinolin-3-yl)vinyl)benzamido)-1H-pyrrole-2-carboxamido)-1H-pyrrole-2-carboxamide] | < 5 µM | 15% | 81% | > 100 µM | 25 to 100 µM (≈ 14 to 56.1 µg/mL) | 5 to 50 µM | – | – | – | –
5 | COc1cccc(/C=C/c2ccc(C(=O)Nc3cc(C(=O)Nc4cc(C(=O)NCCC(=N)NC(C)C)n(C)c4)n(C)c3)cc2)c1 [Ia19, (E)-N-(3-imino-3-(isopropylamino)propyl)-4-(4-(4-(3-methoxystyryl)benzamido)-1-methyl-1H-pyrrole-2-carboxamido)-1-methyl-1H-pyrrole-2-carboxamide] | 5 to 25 µM (≈ 3.05 to 15.2 µg/mL) | 10% | 8% | 25 to 100 µM (≈ 15.2 to 61 µg/mL) | 5 to 25 µM (≈ 3.05 to 15.2 µg/mL) | 5 to 50 µM | B (Group B: 3 < SI <= 5) | – | – | –
6 | COc1cccc(/C=C/c2ccc(C(=O)Nc3cc(C(=O)Nc4cc(C(=O)NCCC(=N)NC(C)C)n(C)c4)n(C)c3)cn2)c1 [Ia23, (E)-N-(5-((5-((3-imino-3-(isopropylamino)propyl)carbamoyl)-1-methyl-1H-pyrrol-3-yl)carbamoyl)-1-methyl-1H-pyrrol-3-yl)-6-(3-methoxystyryl)nicotinamide] | 25 to 100 µM (≈ 15.3 to 61.1 µg/mL) | 41% | 25% | > 100 µM | > 100 µM | 5 to 50 µM | – | – | – | –
7 | Cn1cc(NC(=O)c2cc(NC(=O)c3ccc(/C=C/c4cnc5ccccc5c4)cc3)cn2C)cc1C(=O)NCCOCCOCCO [IVa7, (E)-N-(2-(2-(2-hydroxyethoxy)ethoxy)ethyl)-1-methyl-4-(1-methyl-4-(4-(2-(quinolin-3-yl)vinyl)benzamido)-1H-pyrrole-2-carboxamido)-1H-pyrrole-2-carboxamide] | 5 to 25 µM (≈ 3.25 to 16.3 µg/mL) | 65% | 92% | > 100 µM | > 100 µM | 5 to 50 µM | – | – | – | –
8 | CN(C)c1ccc(/C=C/c2ccc(C(=O)Nc3cc(C(=O)Nc4cc(C(=O)NCCCCN5CCCC5)n(C)c4)n(C)c3)cn2)cc1 [IVa15, (E)-6-(4-(dimethylamino)styryl)-N-(1-methyl-5-((1-methyl-5-((4-(pyrrolidin-1-yl)butyl)carbamoyl)-1H-pyrrol-3-yl)carbamoyl)-1H-pyrrol-3-yl)nicotinamide] | > 100 µM | 15% | 8% | > 100 µM | 25 to 100 µM (≈ 15.9 to 63.7 µg/mL) | – | – | – | – | –
9 | CN(C)c1ccc(/C=C/c2ccc(C(=O)Nc3cc(C(=O)Nc4cc(C(=O)NCCCCN5CCCCC5)n(C)c4)n(C)c3)cn2)cc1 [IVa14, (E)-6-(4-(dimethylamino)styryl)-N-(1-methyl-5-((1-methyl-5-((4-(piperidin-1-yl)butyl)carbamoyl)-1H-pyrrol-3-yl)carbamoyl)-1H-pyrrol-3-yl)nicotinamide] | 5 to 25 µM (≈ 3.25 to 16.3 µg/mL) | 19% | 12% | > 100 µM | 25 to 100 µM (≈ 16.3 to 65.1 µg/mL) | – | – | – | – | –
10 | [H]/N=C(\CCNC(=O)c1cc(NC(=O)c2cc(NC(=O)c3ccc(C=Cc4ccc5nonc5c4)cc3)cn2C)cn1C)NCCc1ccccc1 [Ia43, (E)-4-(4-(2-(benzo[c][1,2,5]oxadiazol-5-yl)vinyl)benzamido)-N-(5-((3-imino-3-(phenethylamino)propyl)carbamoyl)-1-methyl-1H-pyrrol-3-yl)-1-methyl-1H-pyrrole-2-carboxamide] | < 5 µM | 15% | 42% | > 100 µM | < 5 µM | – | – | – | – | –
11 | CCNC(=N)CCNC(=O)c1cc(NC(=O)c2cc(NC(=O)c3ccc(/C=C/c4ccc(OC)cc4)cc3)cn2C)cn1C [Ia20, (E)-N-(3-(ethylamino)-3-iminopropyl)-4-(4-(4-(4-methoxystyryl)benzamido)-1-methyl-1H-pyrrole-2-carboxamido)-1-methyl-1H-pyrrole-2-carboxamide] | 5 to 25 µM (≈ 2.98 to 14.9 µg/mL) | 3% | 6% | 25 to 100 µM (≈ 14.9 to 59.6 µg/mL) | 5 to 25 µM (≈ 2.98 to 14.9 µg/mL) | – | – | – | – | –
12 | CONC(=N)CCNC(=O)c1cc(NC(=O)c2cc(NC(=O)c3ccc(/C=C/c4cnc5ccccc5c4)cc3)cn2C)cn1C [Ia28, (E)-N-(3-imino-3-(methoxyamino)propyl)-1-methyl-4-(1-methyl-4-(4-(2-(quinolin-3-yl)vinyl)benzamido)-1H-pyrrole-2-carboxamido)-1H-pyrrole-2-carboxamide] | < 5 µM | 34% | 66% | > 100 µM | < 5 µM | – | – | – | – | –
13 | CN1CCN(CCNC(=N)CCNC(=O)c2cc(NC(=O)c3cc(NC(=O)c4ccc(/C=C/c5cnc6ccccc6c5)cc4)cn3C)cn2C)CC1 [Ia41, (E)-N-(3-imino-3-((2-(4-methylpiperazin-1-yl)ethyl)amino)propyl)-1-methyl-4-(1-methyl-4-(4-(2-(quinolin-3-yl)vinyl)benzamido)-1H-pyrrole-2-carboxamido)-1H-pyrrole-2-carboxamide] | 5 to 25 µM (≈ 3.57 to 17.9 µg/mL) | 16% | 6% | > 100 µM | 25 to 100 µM (≈ 17.9 to 71.5 µg/mL) | – | – | – | – | –
14 | CCCCCCC[N+](C)(C)CCNC(=O)c1cc(NC(=O)c2cc(NC(=O)c3ccc(/C=C/c4cnc5ccccc5c4)cc3)cn2C)cn1C [Ic6, (E)-N,N-dimethyl-N-(2-(1-methyl-4-(1-methyl-4-(4-(2-(quinolin-3-yl)vinyl)benzamido)-1H-pyrrole-2-carboxamido)-1H-pyrrole-2-carboxamido)ethyl)heptan-1-aminium] | – | 50% | 12% | – | – | – | – | *** (*** means MIC80 <= 5 μM) | — (— means MIC80 > 100 μM) | ** (** means 5 μM < MIC80 <= 25 μM)
15 | [H]/N=C(\CCNC(=O)c1cc(NC(=O)c2cc(NC(=O)c3ccc(C=Cc4ccc5nonc5c4)cc3)cn2C)cn1C)NCCOCCOCCOC [Ia40, (E)-4-(4-(2-(benzo[c][1,2,5]oxadiazol-5-yl)vinyl)benzamido)-N-(5-((12-imino-2,5,8-trioxa-11-azatetradecan-14-yl)carbamoyl)-1-methyl-1H-pyrrol-3-yl)-1-methyl-1H-pyrrole-2-carboxamide] | < 5 µM | 32% | 13% | > 100 µM | 5 to 25 µM (≈ 3.63 to 18.1 µg/mL) | – | – | – | – | –
